Measurements taken from the supplement of paper PMC10307832.

Experiments:
Assay in all cases: relative viability (nuclei count vs DMSO), 5 days (fraction); higher = more cells survive
Doramapimod + Phenformin = compound: Cc1ccc(-n2nc(C(C)(C)C)cc2NC(=O)Nc2ccc(OCCN3CCOCC3)c3ccccc23)cc1 [Doramapimod] + N=C(N)NC(=N)NCCc1ccccc1 [Phenformin] (partner 250 µM)
Summary of the method: (§1)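 Lung cancer cell lines were seeded in 1536-well plates and dosed by pin tool the next day, with either a single drug or a fixed anchor-drug dose combined with five library-drug doses (not always all listed) spaced in √10 steps. Five days later, one step fixed the cells and stained their nuclei (final 0.05% Triton X-100, 1% formaldehyde, 1 ug/ml Hoechst), and nuclei were counted on 4× images. Relative viability is the nuclei count in treated wells divided by the count in vehicle wells, and each value is the median of duplicate plates.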

IPA-3 + Tozasertib = compound: C1=CC=C2C(=C1)C=CC(=C2SSC3=C(C=CC4=CC=CC=C43)O)O [IPA-3] + Cc1cc(Nc2cc(N3CCN(C)CC3)nc(Sc3ccc(NC(=O)C4CC4)cc3)n2)n[nH]1 [Tozasertib] (partner 0.1 µM)
Summary of the method: as §1

RAF265 + Palbociclib = compound: Cn1c(Nc2ccc(C(F)(F)F)cc2)nc2cc(Oc3ccnc(-c4ncc(C(F)(F)F)[nH]4)c3)ccc21 [RAF265] + CC(=O)c1c(C)c2cnc(Nc3ccc(N4CCNCC4)cn3)nc2n(C2CCCC2)c1=O [Palbociclib] (partner 0.5 µM)
Summary of the method: as §1

IPA-3 + OSI-027 = compound: C1=CC=C2C(=C1)C=CC(=C2SSC3=C(C=CC4=CC=CC=C43)O)O [IPA-3] + COc1cccc2cc(-c3nc([C@H]4CC[C@H](C(=O)O)CC4)n4ncnc(N)c34)[nH]c12 [OSI-027] (partner 0.5 µM)
Summary of the method: as §1

Cell Line: UMC-11
- relative viability (Doramapimod + Phenformin; first compound 0.02 µM): 0.319
- relative viability (Doramapimod + Phenformin; first compound 0.06325 µM): 0.32
- relative viability (Doramapimod + Phenformin; first compound 0.2 µM): 0.339
- relative viability (Doramapimod + Phenformin; first compound 0.6325 µM): 0.368
- relative viability (Doramapimod + Phenformin; first compound 2 µM): 0.309
- relative viability (IPA-3 + Tozasertib; first compound 0.2 µM): 0.202
- relative viability (IPA-3 + Tozasertib; first compound 0.6325 µM): 0.205
- relative viability (IPA-3 + Tozasertib; first compound 2 µM): 0.215
- relative viability (IPA-3 + Tozasertib; first compound 6.325 µM): 0.224
- relative viability (IPA-3 + Tozasertib; first compound 20 µM): 0.225
- relative viability (RAF265 + Palbociclib; first compound 0.01 µM): 0.309
- relative viability (RAF265 + Palbociclib; first compound 0.03162 µM): 0.336
- relative viability (RAF265 + Palbociclib; first compound 0.1 µM): 0.334
- relative viability (RAF265 + Palbociclib; first compound 0.3162 µM): 0.314
- relative viability (RAF265 + Palbociclib; first compound 1 µM): 0.32
- relative viability (IPA-3 + OSI-027; first compound 0.2 µM): 0.5
- relative viability (IPA-3 + OSI-027; first compound 0.6325 µM): 0.49
- relative viability (IPA-3 + OSI-027; first compound 2 µM): 0.426
- relative viability (IPA-3 + OSI-027; first compound 6.325 µM): 0.458
- relative viability (IPA-3 + OSI-027; first compound 20 µM): 0.502
